Results: patent US12018021B2 (UCB Biopharma SRL, priority 2018, dated 2024)

Target: IgE-Tb / sFcεRIα-Y131A-AF488 (Homo sapiens, UniProt P01854, N146Q/N252Q)
Test: IgE-Tb / sFcεRIα-Y131A-AF488 FRET assay (protocol for examples 234 to 501)
Format: binding
Conditions: examples 234 to 501: compound with IgE-Tb 30 minutes before sFcεRIα-Y131A-AF488, incubated 18 hours at room temperature; read-out: Y131A FRET IC50 range
Procedure, shortened: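 Compounds (10-point 3-fold series, top usually 10 μM, 2% DMSO) preincubated 30 min with 5 nM IgE-Tb, then 25 nM sFcεRIα-Y131A-AF488 added; 18 h at room temperature in the dark. TR-FRET ratio 520/490 nm after 337 nm excitation, background-subtracted; IC50 by four-parameter logistic fit.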

Chain of IgE-Tb / sFcεRIα-Y131A-AF488 (P01854 whole entry N146Q/N252Q): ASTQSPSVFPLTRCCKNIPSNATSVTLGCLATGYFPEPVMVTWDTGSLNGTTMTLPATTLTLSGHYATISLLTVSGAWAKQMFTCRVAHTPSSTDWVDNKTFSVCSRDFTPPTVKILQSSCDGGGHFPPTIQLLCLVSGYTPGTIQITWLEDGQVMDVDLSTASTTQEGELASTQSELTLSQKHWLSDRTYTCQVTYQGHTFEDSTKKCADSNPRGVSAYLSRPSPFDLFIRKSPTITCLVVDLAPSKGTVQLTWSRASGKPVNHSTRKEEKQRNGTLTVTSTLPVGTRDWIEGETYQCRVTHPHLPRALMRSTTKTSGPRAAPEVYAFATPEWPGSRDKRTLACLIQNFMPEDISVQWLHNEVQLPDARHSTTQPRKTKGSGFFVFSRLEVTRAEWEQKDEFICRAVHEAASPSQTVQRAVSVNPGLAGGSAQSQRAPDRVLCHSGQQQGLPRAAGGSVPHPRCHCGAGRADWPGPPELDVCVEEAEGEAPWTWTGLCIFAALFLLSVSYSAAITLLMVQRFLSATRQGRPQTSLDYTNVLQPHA

**Q.** For `Cn1nc(C(F)F)cc1Nc1nncn1[C@H]1CCc2sc(NC(=O)C3CC(F)C3)c(C(=O)NCC3CC3)c2C1` (stereo partly drawn) [Example 353, (5S)—N-(cyclopropylmethyl)-5-[3-[[5-(difluoromethyl)-2-methylpyrazol-3-yl]amino]-1,2,4-triazol-4-yl]-2-[(3-fluorocyclobutanecarbonyl)amino]-4,5,6,7-tetrahydro-1-benzothiophene-3-carboxamide], which IC50 is on record?
**A.** Its IC50 is < 1000 nM.

**Q.** With `Cn1nc(C(F)F)cc1Nc1nncn1[C@H]1CCc2sc(NC(=O)[C@H]3C[C@H](F)C3)c(C(=O)NCC3CC3)c2C1` [Example 354, (5S)—N-(cyclopropylmethyl)-5-[3-[[5-(difluoromethyl)-2-methylpyrazol-3-yl]amino]-1,2,4-triazol-4-yl]-2-[trans-(3-fluorocyclobutanecarbonyl)amino]-4,5,6,7-tetrahydro-1-benzothiophene-3-carboxamide] as the compound, how does the IC50 read?
**A.** The IC50 was < 1000 nM.

**Q.** Which IC50 does the source give for `Cn1nc(C(F)F)cc1Nc1nncn1[C@H]1CCc2sc(NC(=O)C3COC3)c(C(=O)NCC3CC3)c2C1` [Example 356, N-[(5S)-3-(cyclopropylmethylcarbamoyl)-5-[3-[[5-(difluoromethyl)-2-methylpyrazol-3-yl]amino]-1,2,4-triazol-4-yl]-4,5,6,7-tetrahydro-1-benzothiophen-2-yl]oxetane-3-carboxamide] here?
**A.** The IC50 was < 1000 nM.

**Q.** Which IC50 does the source give for `Cn1nc(C(F)F)cc1Nc1nncn1[C@H]1CCc2sc(NC(=O)C3CC(F)(F)C3)c(C(=O)NCC3CC3)c2C1` [Example 357, (5S)—N-(cyclopropylmethyl)-2-[(3,3-difluorocyclobutanecarbonyl)amino]-5-[3-[[5-(difluoromethyl)-2-methylpyrazol-3-yl]amino]-1,2,4-triazol-4-yl]-4,5,6,7-tetrahydro-1-benzothiophene-3-carboxamide] here?
**A.** Its IC50 is < 1000 nM.

**Q.** Which IC50 does the source give for `Cn1nc(C(F)F)cc1Nc1nncn1[C@H]1CCc2sc(NC(=O)CC(F)F)c(C(=O)NCC3CC3)c2C1` [Example 358, (5S)—N-(cyclopropylmethyl)-5-[3-[[5-(difluoromethyl)-2-methylpyrazol-3-yl]amino]-1,2,4-triazol-4-yl]-2-(3,3-difluoropropanoylamino)-4,5,6,7-tetrahydro-1-benzothiophene-3-carboxamide] here?
**A.** The IC50 was < 1000 nM.

**Q.** Which IC50 does the source give for `Cn1nc(C(F)F)cc1Nc1nncn1[C@H]1CCc2sc(NC(=O)C3CCC3)c(C(=O)NCC3CC3)c2C1` [Example 359, (5S)-2-(cyclobutanecarbonylamino)-N-(cyclopropylmethyl)-5-[3-[[5-(difluoromethyl)-2-methylpyrazol-3-yl]amino]-1,2,4-triazol-4-yl]-4,5,6,7-tetrahydro-1-benzothiophene-3-carboxamide] here?
**A.** The IC50 was < 1000 nM.

**Q.** How did the IC50 turn out when `CC(C)C(=O)Nc1sc2c(c1C(=O)NCC1CC1)C[C@@H](n1cnnc1Nc1cc(C(F)F)nn1C)CC2` [Example 360, (5S)—N-(cyclopropylmethyl)-5-[3-[[5-(difluoromethyl)-2-methylpyrazol-3-yl]amino]-1,2,4-triazol-4-yl]-2-(2-methylpropanoylamino)-4,5,6,7-tetrahydro-1-benzothiophene-3-carboxamide] was run?
**A.** Its IC50 is < 1000 nM.

**Q.** For `Cn1nc(C(F)F)cc1Nc1nncn1[C@H]1CCc2sc(NC(=O)[C@H]3C[C@@H]3F)c(C(=O)NCC3CC3)c2C1` [Example 368, (5S)—N-(cyclopropylmethyl)-5-[3-[[5-(difluoromethyl)-2-methyl-pyrazol-3-yl]amino]-1,2,4-triazol-4-yl]-2-[[(1R,2S)-2-fluorocyclopropanecarbonyl]amino]-4,5,6,7-tetrahydrobenzothiophene-3-carboxamide], which IC50 is on record?
**A.** The IC50 was < 1000 nM.

**Q.** How did the IC50 turn out when `Cn1nc(C(F)F)cc1Nc1nncn1[C@H]1CCc2sc(NC(=O)C3CC3)c(C(=O)N[C@H]3C[C@H](F)C3)c2C1` [Example 373, (5S)-2-(cyclopropanecarbonylamino)-5-[3-[[5-(difluoromethyl)-2-methylpyrazol-3-yl]amino]-1,2,4-triazol-4-yl]-N-(trans-3-fluorocyclobutyl)-4,5,6,7-tetrahydro-1-benzothiophene-3-carboxamide] was run?
**A.** The IC50 was < 1000 nM.

**Q.** For `Cn1nc(OC(F)F)cc1Nc1nncn1[C@H]1CCc2sc(NC(=O)[C@H]3C[C@@H]3F)c(C(=O)NC[C@H]3C[C@H]3F)c2C1` [Example 380, (5S)-5-[3-[[5-(difluoromethoxy)-2-methylpyrazol-3-yl]amino]-1,2,4-triazol-4-yl]-2-[[(1R,2S)-2-fluorocyclopropanecarbonyl]amino]-N-[[(1R,2R)-2-fluorocyclopropyl]methyl]-4,5,6,7-tetrahydro-1-benzothiophene-3-carboxamide], which IC50 is on record?
**A.** Its IC50 is < 1000 nM.

**Q.** How did the IC50 turn out when `Cn1nc(C(F)F)cc1Nc1nncn1[C@H]1CCc2sc(NC(=O)C3CC3)c(C(=O)NC3CC(F)(F)C3)c2C1` [Example 387, (5S)-2-(cyclopropanecarbonylamino)-N-(3,3-difluorocyclobutyl)-5-[3-[[5-(difluoromethyl)-2-methylpyrazol-3-yl]amino]-1,2,4-triazol-4-yl]-4,5,6,7-tetrahydro-1-benzothiophene-3-carboxamide] was run?
**A.** The IC50 was < 1000 nM.

**Q.** With `Cn1nc(C(F)F)cc1Nc1nncn1[C@H]1CCc2sc(NC(=O)C3CC3)c(C(=O)N[C@H]3C[C@@H](F)C3)c2C1` [Example 388, (5S)-2-(cyclopropanecarbonylamino)-5-[3-[[5-(difluoromethyl)-2-methylpyrazol-3-yl]amino]-1,2,4-triazol-4-yl]-N-(cis-3-fluorocyclobutyl)-4,5,6,7-tetrahydro-1-benzothiophene-3-carboxamide] as the compound, how does the IC50 read?
**A.** Its IC50 is < 1000 nM.

**Q.** `Cn1nc(C(F)F)cc1Nc1nncn1[C@H]1CCc2sc(NC(=O)C3CC3)c(C(=O)NCC3CC(F)(F)C3)c2C1` [Example 389, (5S)-2-(cyclopropanecarbonylamino)-N-[(3,3-difluorocyclobutyl)methyl]-5-[3-[[5-(difluoromethyl)-2-methylpyrazol-3-yl]amino]-1,2,4-triazol-4-yl]-4,5,6,7-tetrahydro-1-benzothiophene-3-carboxamide] was tested. Which IC50 did it give?
**A.** Its IC50 is < 1000 nM.

**Q.** With `CC1CC1CNC(=O)c1c(NC(=O)C2CC2F)sc2c1CC(n1cnnc1Nc1cc(C(F)(F)F)nn1C)CC2` [Example 390, (5S)-2-[[(1R,2R)-2-fluorocyclopropanecarbonyl]amino]-N-[[1RS,2RS)-2-methylcyclopropyl]methyl]-5-[3-[[2-methyl-5-(trifluoromethyl)pyrazol-3-yl]amino]-1,2,4-triazol-4-yl]-4,5,6,7-tetrahydro-1-benzothiophene-3-carboxamide (cis)] as the compound, how does the IC50 read?
**A.** Its IC50 is < 1000 nM.

**Q.** How did the IC50 turn out when `Cn1nc(C(F)(F)F)cc1Nc1nncn1[C@H]1CCc2sc(NC(=O)[C@H]3C[C@H]3F)c(C(=O)NC[C@@H]3C[C@@H]3F)c2C1` [Example 392, (5S)-2-[[(1R,2R)-2-fluorocyclopropanecarbonyl]amino]-N-[[(1S,2S)-2-fluorocyclopropyl]methyl]-5-[3-[[2-methyl-5-(trifluoromethyl)pyrazol-3-yl]amino]-1,2,4-triazol-4-yl]-4,5,6,7-tetrahydro-1-benzothiophene-3-carboxamide] was run?
**A.** The IC50 was < 1000 nM.

**Q.** `Cn1nc(C(F)(F)F)cc1Nc1nncn1[C@H]1CCc2sc(NC(=O)[C@H]3C[C@H]3F)c(C(=O)NC[C@H]3C[C@@H]3F)c2C1` [Example 395, (5S)-2-[[(1R,2R)-2-fluorocyclopropanecarbonyl]amino]-N-[[(1R,2S)-2-fluorocyclopropyl]methyl]-5-[3-[[2-methyl-5-(trifluoromethyl)pyrazol-3-yl]amino]-1,2,4-triazol-4-yl]-4,5,6,7-tetrahydro-1-benzothiophene-3-carboxamide] was tested. Which IC50 did it give?
**A.** Its IC50 is < 1000 nM.

**Q.** `Cn1nc(C(F)(F)F)cc1Nc1nncn1[C@H]1CCc2sc(NC(=O)[C@H]3C[C@H]3F)c(C(=O)NC[C@H]3C[C@H]3F)c2C1` [Example 399, (5S)-2-[[(1R,2R)-2-fluorocyclopropanecarbonyl]amino]-N-[[(1R,2R)-2-fluorocyclopropyl]methyl]-5-[3-[[2-methyl-5-(trifluoromethyl)pyrazol-3-yl]amino]-1,2,4-triazol-4-yl]-4,5,6,7-tetrahydro-1-benzothiophene-3-carboxamide] was tested. Which IC50 did it give?
**A.** The IC50 was < 1000 nM.

**Q.** How did the IC50 turn out when `Cn1nc(C(F)(F)F)cc1Nc1nncn1[C@H]1CCc2sc(NC(=O)[C@@H]3C[C@@H]3F)c(C(=O)NCC3CC3)c2C1` [Example 401] was run?
**A.** The IC50 was < 1000 nM.

**Q.** For `Cn1nc(C(F)(F)F)cc1Nc1nncn1[C@H]1CCc2sc(NC(=O)[C@H]3C[C@H]3F)c(C(=O)N[C@H]3C[C@H](F)C3)c2C1` [Example 402, (5S)—N-(trans-3-fluorocyclobutyl)-2-[[(1R,2R)-2-fluorocyclopropanecarbonyl]amino]-5-[3-[[2-methyl-5-(trifluoromethyl)pyrazol-3-yl]amino]-1,2,4-triazol-4-yl]-4,5,6,7-tetrahydro-1-benzothiophene-3-carboxamide], which IC50 is on record?
**A.** Its IC50 is < 1000 nM.

**Q.** With `[2H]C([2H])([2H])n1nc(C(F)F)cc1Nc1nncn1[C@H]1CCc2sc(NC(=O)C3CC3)c(C(=O)NCC3CC3)c2C1` [Example 403, (5S)-2-(cyclopropanecarbonylamino)-N-(cyclopropylmethyl)-5-[3-[[5-(difluoromethyl)-2-(trideuteriomethyl)pyrazol-3-yl]amino]-1,2,4-triazol-4-yl]-4,5,6,7-tetrahydrobenzothiophene-3-carboxamide] as the compound, how does the IC50 read?
**A.** Its IC50 is < 1000 nM.

**Q.** `Cn1nc(C(F)F)cc1Nc1nncn1[C@H]1CCc2sc(NC(=O)[C@H]3CC34CC4)c(C(=O)NC[C@H]3C[C@H](F)C3)c2C1` [Example 404, (5S)-5-[3-[[5-(Difluoromethyl)-2-methylpyrazol-3-yl]amino]-1,2,4-triazol-4-yl]-N-[trans-(3-fluorocyclobutyl)methyl]-2-[[(2S)-spiro[2.2]pentane-2-carbonyl]amino]-4,5,6,7-tetrahydro-1-benzothiophene-3-carboxamide] was tested. Which IC50 did it give?
**A.** The IC50 was < 1000 nM.

**Q.** For `Cn1nc(C(F)F)cc1Nc1nncn1[C@H]1CCc2sc(NC(=O)[C@H]3CC34CC4)c(C(=O)N[C@H]3C[C@H](F)C3)c2C1` [Example 405, (5S)-5-[3-[[5-(Difluoromethyl)-2-methylpyrazol-3-yl]amino]-1,2,4-triazol-4-yl]-N-(trans-3-fluorocyclobutyl)-2-[[(2S)-spiro[2.2]pentane-2-carbonyl]amino]-4,5,6,7-tetrahydro-1-benzothiophene-3-carboxamide], which IC50 is on record?
**A.** Its IC50 is < 1000 nM.
